# Laboratory results as given in patent publication EP2092824A1, “Heterocyclyl pyrimidines” (Bayer CropScience AG, priority 2008, dated 2009).
# What was measured:
# [1] = tested on: Myzus persicae; assay: Myzus test (MYZUPE spray treatment); format: in vivo; details: foliar, Aufwandmenge 500 g/ha, sprayed Chinese cabbage leaf discs (Brassica pekinensis) infested with all stages, 100 % = all aphids killed, read-out: Wirkung
# Description: Myzus-Test (MYZUPE Spritzbehandlung)
# (§1) Zur Herstellung einer zweckmäßigen Wirkstoffzubereitung vermischt man 1 Gewichtsteil Wirkstoff mit den angegebenen Mengen Lösungsmittel und Emulgator und verdünnt das Konzentrat mit emulgatorhaltigem Wasser auf die gewünschte Konzentration.
# Chinakohlblattscheiben (Brassica pekinensis), die von allen Stadien der Grünen Pfirsichblattlaus (Myzus persicae) befallen sind, werden mit einer Wirkstoffzubereitung der gewünschten Konzentration gespritzt.
# Nach der gewünschten Zeit wird die Wirkung in % bestimmt. Dabei bedeutet 100 %, dass alle Blattläuse abgetötet wurden; 0 % bedeutet, dass keine Blattläuse abgetötet wurden.
# [2] = tested on: Phaedon cochleariae; assay: Phaedon test (PHAECO spray treatment); format: in vivo; details: foliar, Aufwandmenge 500 g/ha, sprayed Chinese cabbage leaf discs, larvae, 100 % = all beetle larvae killed, read-out: Wirkung
# Description: Phaedon-Test (PHAECO Spritzbehandlung)
# as §1
# Chinakohlblattscheiben (Brassica pekinensis) werden mit einer Wirkstoffzubereitung der gewünschten Konzentration gespritzt und nach dem Abtrocknen mit Larven des Meerrettichblattkäfers (Phaedon cochleariae) besetzt.
# Nach der gewünschten Zeit wird die Wirkung in % bestimmt. Dabei bedeutet 100 %, dass alle Käferlarven abgetötet wurden; 0 % bedeutet, dass keine Käferlarven abgetötet wurden.
# [3] = logP determination by HPLC on reversed-phase column (EEC-Directive 79/831 Annex V.A8); format: physicochemical; details: c18 hplc, C 18 reversed phase, 43°C, LC-MS at pH 2,7 (0,1 % aqueous formic acid / acetonitrile)
# Experimental: Die Bestimmung der in den Herstellungsbeispielen angegebenen logP-Werte erfolgte gemäß EEC-Directive 79/831 Annex V.A8 durch HPLC (High Performance Liquid Chromatography) an einer Phasenumkehrsäule (C 18). Temperatur: 43°C.
# Die Bestimmung erfolgte mit der LC-MS bei pH 2,7 mit 0,1 % wässriger Ameisensäure und Acetonitril (enthält 0,1 % Ameisensäure) als Eluenten; linearer Gradient von 10 % Acetonitril bis 95 % Acetonitril.
# Die Eichung erfolgte mit unverzweigten Alkan-2-onen (mit 3 bis 16 Kohlenstoffatomen), deren logP-Werte bekannt sind (Bestimmung der logP-Werte anhand der Retentionszeiten durch lineare Interpolation zwischen zwei aufeinanderfolgenden Alkanonen).
# [4] = tested on: Sphaerotheca fuliginea; assay: Sphaerotheca test (cucumber) / protective; format: in vivo; details: Konzentration an Wirkstoff 500ppm, cucumber plants, evaluation 7 days after inoculation, 100 % = no infestation
# Description: Sphaerotheca-Test (Gurke) / protektiv
# (§2) Zur Herstellung einer zweckmäßigen Wirkstoffzubereitung vermischt man 1 Gewichtsteil Wirkstoff mit den angegebenen Mengen Lösungsmittel und Emulgator und verdünnt das Konzentrat mit Wasser auf die gewünschte Konzentration.
# Zur Prüfung auf protektive Wirksamkeit bespritzt man junge Gurkenpflanzen mit der Wirkstoffzubereitung in der angegebenen Aufwandmenge. 1 Tag nach der Behandlung werden die Pflanzen mit einer Sporensuspension von Sphaerotheca fuliginea inokuliert. Anschließend werden die Pflanzen in einem Gewächshaus bei 70 % relativer Luftfeuchtigkeit und einer Temperatur von 23 °C aufgestellt.
# 7 Tage nach der Inokulation erfolgt die Auswertung. Dabei bedeutet 0 % ein Wirkungsgrad, der demjenigen der Kontrolle entspricht, während ein Wirkungsgrad von 100 % bedeutet, daß kein Befall beobachtet wird.
# [5] = tested on: Puccinia recondita; assay: Puccinia test (wheat) / protective; format: in vivo; details: Konzentration an Wirkstoff 500ppm, wheat plants, evaluation 7-9 days after inoculation, 100 % = no infestation
# Description: Puccinia-Test (Weizen) / protektiv
# as §2
# Zur Prüfung auf protektive Wirksamkeit bespritzt man junge Weizenpflanzen mit der Wirkstoffzubereitung in der angegebenen Aufwandmenge. 1 Tag nach der Behandlung werden die Pflanzen mit einer Sporensuspension von Puccinia recondita inokuliert und stehen dann 48h bei 100% rel. Feuchte und 22°C. Anschließend stehen die Pflanzen bei 80% rel. Luftfeuchtigkeit und einer Temperatur von 20 °C.
# 7-9 Tage nach der Inokulation erfolgt die Auswertung. Dabei bedeutet 0 % ein Wirkungsgrad, der demjenigen der Kontrolle entspricht, während ein Wirkungsgrad von 100 % bedeutet, dass kein Befall beobachtet wird.
# [6] = tested on: Meloidogyne incognita; assay: Meloidogyne test (MELGIN spray treatment); format: in vivo; details: Aufwandmenge 4 ppm; nematicidal effect by gall formation on lettuce roots; 100 % = no galls
# Description: Meloidogyne-Test (MELGIN Spritzbehandlung)
# Zur Herstellung einer zweckmäßigen Wirkstoffzubereitung vermischt man 1 Gewichtsteil Wirkstoff mit der angegebenen Menge Lösungsmittel und verdünnt das Konzentrat mit Wasser auf die gewünschte Konzentration.
# Gefäße werden mit Sand, Wirkstofflösung, Meloidogyne incognita-Ei-Larven-Suspension und Salatsamen gefüllt. Die Salatsamen keimen und die Pflänzchen entwickeln sich. An den Wurzeln entwickeln sich die Gallen.
# Nach der gewünschten Zeit wird die nematizide Wirkung an Hand der Gallenbildung in % bestimmt. Dabei bedeutet 100 %, dass keine Gallen gefunden wurden; 0 % bedeutet, dass die Zahl der Gallen an den behandelten Pflanzen der der unbehandelten Kontrolle entspricht.
SMILES,mortality at 500 g/ha [1] [%],mortality at 500 g/ha [2] [%],chromatographic logP [3],further results
Cc1cc(C(=O)O)nn1-c1nc(Cl)c(-c2c(F)cc(F)cc2F)c(NC(C)C)n1 [X-5],≥ 80,≥ 80,,
Cc1cc(C(=O)NS(C)(=O)=O)nn1-c1nc(Cl)c(-c2c(F)cc(F)cc2F)c(NC(C)C)n1 [I-6],≥ 80,≥ 80,,
Cc1cc(C(=O)NS(C)(=O)=O)nn1-c1nc(Cl)c(-c2ccccc2)c(NC(C)C)n1 [I-4],,≥ 80,,
"CSc1nc(Cl)c(-c2ccccc2Cl)c(Cl)n1 [4,6-Dichlor-5-(2-chlorphenyl)-2-(methylthio)pyrimidin]",,,4.52,
"Cc1cc(C(=O)O)nn1-c1nc(Cl)c(-c2ccccc2Cl)c(NC(C)C)n1 [X-2, 1-[4-Chlor-5-(2-chlorphenyl)-6-(isopropylamino)pyrimidin-2-yl]-5-methyl-1H-pyrazol-3-carbonsäure]",≥ 80,≥ 80,,
"CC(C)Nc1nc(-n2ccc(C(=O)O)n2)nc(Cl)c1-c1ccccc1Cl [X-1, 1-[4-Chlor-5-(2-chlorphenyl)-6-(isopropylamino)pyrimidin-2-yl]-1H-pyrazol-3-carbonsäure]",≥ 80,≥ 80,,
"CC(C)Nc1nc(-n2ccc(C(=O)NS(C)(=O)=O)n2)nc(Cl)c1-c1ccccc1Cl [I-2, 1-[4-Chlor-5-(2-chlorphenyl)-6-(isopropylamino)pyrimidin-2-yl]-N-(methylsulfonyl)-1H-pyrazol-3-carboxamid]",≥ 80,≥ 80,,Wirkungsgrad [4]: ≥ 70%; Wirkungsgrad [5]: ≥ 70%
"Cc1cc(C(=O)NS(C)(=O)=O)nn1-c1nc(Cl)c(-c2ccccc2Cl)c(NC(C)C)n1 [I-3, 1-[4-Chlor-5-(2-chlorphenyl)-6-(isopropylamino)pyrimidin-2-yl]-5-methyl-N-(methylsulfonyl)-1H-pyrazol-3-carboxamid]",≥ 80,≥ 80,,Wirkungsgrad [4]: ≥ 70%; Wirkung [6]: ≥ 80%; Wirkungsgrad [5]: ≥ 70%
Cc1cc(C(=O)O)nn1-c1nc(Cl)c(-c2ccccc2)c(NC(C)C)n1 [X-3],,≥ 80,,
CSc1nc(Cl)c(-c2ccccc2Cl)c(NC(C)C)n1 [4-Chlor-5-(2-chlorphenyl)-6-(isopropylamino)-2-(methylthio)-pyrimidin],,,4.52,
"CC(C)Nc1nc(S(C)(=O)=O)nc(Cl)c1-c1ccccc1Cl [II-1, 4-Chlor-5-(2-chlorphenyl)-6-isopropylamino-2-methylsulfonyl-pyrimidin]",,,2.96,
CC(C)Nc1nc([S+](C)[O-])nc(Cl)c1-c1ccccc1Cl (centres unmarked) [4-Chlor-5-(2-chlorphenyl)-6-(isopropylamino)-2-(methylsulfinyl)-pyrimidin],,,2.55,
